According to patent EP2098223A1, “Compressed solid dosage form” (Teva Pharmaceutical Industries Ltd., priority 2004, dated 2006):
Counter-ions that a name gives are not always drawn.

Assay: Particle size distribution by laser light scattering (Malvern Mastersizer S)
Type: physicochemical
Settings: mean equivalent spherical diameter; raloxifene hydrochloride used in Formulations 1-4
From the text: For example, in Formulations 1-4 below, d(0.5) = 38.8 µm and d(0.9) = 90.4 µm. All particle sizes herein refer to the mean equivalent spherical diameter measured by laser light scattering techniques. Thus, the notation "d(0.5) greater than about 35 µm" means that 50% of the particles by volume have a mean equivalent spherical diameter of more than about 35 µm, as measured by laser light scattering. The laser light scattering measurement instrument used to measure the particle size distributions in the Examples was a Malvern Mastersizer® S. The dissolution profile was generated by testing in either 900 mL or 2 L of a 0.1 % aqueous polysorbate 80 solution, using paddle apparatus (USP Apparatus II) at 50 rpm at 37°C.

O=C(c1ccc(OCCN2CCCCC2)cc1)c1c(-c2ccc(O)cc2)sc2cc(O)ccc12 [raloxifene hydrochloride]
d(0.5): 38.8 µm | d(0.9): 90.4 µm
